The source of these data is patent US12239629B2 (priority 2020, dated 2025).

Values after ≈ are worked out from the molar mass of the structure shown. Where a name gives a salt, the structure may show the parent alone. Read-outs that look alike come from different tables or passages of the source.

The subject of series [1] is SARS-CoV2. Kind of series: Drug added to Vero E6 cells immediately after SARS-CoV2 adsorption, indirect immunofluorescence after 24 hours. The class given is cell-based. The conditions noted are these: for inhibition: added after the initiation of infection. The method, then:
(§1) In carrying out the in vitro experiments, vero E6 cells (an African green monkey kidney cell line) were infected with SARS-CoV2 at a multiplicity of infection of 0.5 for 1 hour. The cells were washed with PBS and then incubated in OPTI-MEM (Invitrogen) medium with or without various concentrations of the following drug candidates: Artemether (from BiopharmaRx) Hydroxychloroquine (from Sigma Aldrich), Atazanavir (from Sigma Aldrich), and Efavirenz (from Sigma Aldrich), Fosamprenavir Calcium (from Sigma Aldrich), Saquinavir (from Sigma Aldrich) and Remdesivir (from AOBIOUS, INC., USA)
(§2) Immunofluorescence staining was performed with SARS-CoV2-specific hyperimmune mouse ascitic fluid (HMAF) followed by anti-mouse fluorescein-coupled antibody.
The antiviral properties of artemether on SARS-CoV2 after the initiation of infection were studied. Vero E6 cells were infected with the virus and fresh medium supplemented with various concentrations of artemether was added immediately after virus adsorption. Infected cells were incubated for an additional 24 hours, after which the presence of virus antigens was analyzed by indirect immunofluorescence analysis. When artemether was added after the initiation of infection, there was a dramatic dose dependent decrease in the number of virus antigen-positive cells. […] A half-maximal inhibitory effect was estimated to occur at 16.5±1.0 μM artemether. […] (FIG. 2).

For series [2], the system named is SARS-CoV2. Kind of series: Drug pretreatment of Vero E6 cells prior to SARS-CoV2 infection, indirect immunofluorescence. The class given is cell-based. The protocol: as §1, §2
Experiments were carried out to determine the impact of artemether treatment on SARS-CoV2 infection. Permissive Vero E6 cells were pre-treated with various concentrations of artemether (0.1-50 μM) for 18-24 hours prior to virus infection. Cells were then infected with SARS-CoV2, and virus antigens were visualized by indirect immunofluorescence. For quantitative purposes, we counted the number of cells stained positive from three random locations on a slide. The average number of positively stained control cells was scored as 100% and was compared with the number of positive cells observed under various artemether concentrations. Pretreatment with 0.1, 1, 10, 20, 30, 40 and 50 μM artemether reduced infectivity by 4%, 12%, 32%, 45%, 63%, 92% and 100% respectively. Reproducible results were obtained from three independent experiments.

For series [3] the following is noted: cited from earlier work.
Series [4] in a line: Peak Inhibitory Concentration (Threshold) after oral administration. The protocol: It is noted that the Peak Inhibitory Concentration (Threshold) of Artemether and Remdesivir were at 120 minutes after oral administration. The Peak Inhibitory Concentration (Threshold) of Lumefantrine was at 60 minutes after oral administration.
Series [5] in a line: Dissolution test of Artemether/Lumefantrine-Remdesivir soft gel capsule. It counts as physicochemical. The conditions noted are these: 0.1 N. HCl with 3% Benzalkonium Chloride. An excerpt:
The soft gel capsule of Artemether and Lumefantrine is comprised: Artemether 4 to 5% w/w, Lumefantrine 20-24% w/w, Remdesivir 18-20%, non-aqueous vehicle 15-20% w/w, preservative less than 1% w/w, viscosity imparting agent 15-20% w/w, suspending agent 1 to 5% w/w and emulsifying agent 1 to 3% w/w and a process to manufacture the said preparation comprising of the following steps as given in the above Patent. • (a) Preservatives and Solid Suspending Agents were milled and sifted. • (b) Non-aqueous vehicle, viscosity imparting agent and liquid suspending agents were filtered to remove the foreign particles • (c) Additional steps for mixing preservatives and suspending agents: • (i) Preservatives were dissolved in non-aqueous vehicle; • (ii) Emulsifying agents were warmed and/or melted and added into mixture in (i) above; • (iii) Viscosity imparting agent is added to mixture of (ii) above and the resultant mixture is stirred. • (iv) Suspending agent is added and mixed with the mixture in (iii) above; and • (v) The mixture of (a) above and (c) (iv) above was homogenized. • (d) The mixture in (v) above was the encapsulated in soft gelatin.
Drug dissolution testing is routinely used to provide critical in vitro drug release information for both quality control purposes to predict in vivo drug release profiles.
The media for dissolution test was 0.1 N. HCl with 3% Benzalkonium Chloride.

In series [6] the test system is severe COVID-19. As to conditions: cited from earlier work.
The subject of series [7] is COVID-19. As to conditions: preliminary results, cited from earlier work.
Setting [8] is: Severe acute respiratory syndrome coronavirus 2, Vero C1008, drug added immediately after virus adsorption, Vero E6 cells, estimated, read-out: half-maximal inhibitory effect.
Setting [9] is: pretreatment 18-24 hours prior to virus infection, 0.1 μM.
Where [10] appears, read: pretreatment 18-24 hours prior to virus infection, 1 μM.
Setting [11] is: pretreatment 18-24 hours prior to virus infection, 10 μM.
Setting [12] is: pretreatment 18-24 hours prior to virus infection, 20 μM.
Where [13] appears, read: pretreatment 18-24 hours prior to virus infection, 30 μM.
The mark [14] stands for this setting: pretreatment 18-24 hours prior to virus infection, 40 μM.
Setting [15] is: pretreatment 18-24 hours prior to virus infection, 50 μM.
[16] abbreviates: Severe acute respiratory syndrome coronavirus 2, Vero C1008, read-out: half-maximal inhibitory effect, drug added immediately after virus adsorption, Vero E6 cells, estimated.
[17] abbreviates: Severe acute respiratory syndrome coronavirus 2, Vero C1008, drug added after the initiation of infection, Vero E6 cells, read-out: concentration that reduced the infection by 50%.
Setting [18] is: pretreatment prior to virus infection, 5 μM.
Where [19] appears, read: pretreatment prior to virus infection, 15 μM.
Where [20] appears, read: pretreatment prior to virus infection, 25 μM.

For the molecule `CCN(CCO)CCCC(C)Nc1ccnc2cc(Cl)ccc12` (stereo not shown) [hydroxychloroquine sulfate], in series [1] (40-100 μM concentrations), the inhibition was 75-96%. Also, the IC50 in series [1] (setting [8]) was 7.5 ± 1 µM. This molecule registered a reduced the infection in series [1] (approximately 10 μM added immediately after virus adsorption, 24 hours) of 63%. The reduced infectivity in series [2] (setting [9]) is 6%; in series [2] (setting [10]) it was 18%; in series [2] (setting [11]), 47%; in series [2] (setting [12]), 63%; in series [2] (setting [13]), 81%; in series [2] (setting [14]) it was 92%. Further, the reduced infectivity in series [2] (setting [15]) came out at 100%.
For the molecule `O=C1Nc2ccc(Cl)cc2[C@@](C#CC2CC2)(C(F)(F)F)O1` [efavirenz, Efavirenz], the inhibition in series [1] (80-200 μM concentrations) was 73%-96%. The IC50 in series [1] (Severe acute respiratory syndrome coronavirus 2, Vero C1008, read-out: concentration that reduced the infection by 50%, drug added after the initiation of infection, Vero E6 cells) was around 55 µM; in series [1] (setting [16]) it was 51 ± 1 µM. Moreover, the reduced infectivity in series [2] (setting [9]) was found to be 3%; in series [2] (setting [10]), 9%; in series [2] (setting [11]) it was 25%; in series [2] (setting [12]) it was 48%; in series [2] (setting [13]), 73%; in series [2] (setting [14]), 89%. In addition, the reduced infectivity in series [2] (setting [15]) amounted to 100%.
With `CC(C)(C)NC(=O)[C@@H]1C[C@@H]2CCCC[C@@H]2CN1C[C@@H](O)[C@H](Cc1ccccc1)NC(=O)[C@H](CC(N)=O)NC(=O)c1ccc2ccccc2n1` [saquinavir, Saquinavir], the inhibition in series [1] (120-240 μM concentrations) is on record as 63%-96%. The IC50 in series [1] (setting [16]) is 96 ± 1 µM. The reduced infectivity worked out at 5% in series [2] (setting [10]); 16% in series [2] (setting [11]); 35% in series [2] (setting [12]); 47% in series [2] (setting [14]); 78% in series [2] (pretreatment 18-24 hours prior to virus infection, 60 μM); 85% in series [2] (pretreatment 18-24 hours prior to virus infection, 80 μM). The reduced infectivity in series [2] (pretreatment 18-24 hours prior to virus infection, 100 μM) was 100%.
Turning to `C[C@H]1O[C@@H](O[C@H]2[C@@H](O)C[C@H](O[C@H]3[C@@H](O)C[C@H](O[C@H]4CC[C@@]5(C)[C@H](CC[C@@H]6[C@@H]5C[C@@H](O)[C@]5(C)[C@@H](C7=CC(=O)OC7)CC[C@]65O)C4)O[C@@H]3C)O[C@@H]2C)C[C@H](O)[C@@H]1O` [digoxin, 3-[(3S,5R,8R,9S, 10S, 12R, 13S, 14S, 17R)-3-[(2R,4S,5S,6R)-5-[(2S,4S,5S,6R)-5-[(2S,4S,5S,6R)-4,5-dihydroxy-6-methyloxan-2-yl]oxy-4-hydroxy-6-methyloxan-2-yl]oxy-4-hydroxy-6-methyloxan-2-yl]oxy-12,14-dihydroxy-10, 13-dimethyl-1,2,3,4,5,6,7,8,9, 11, 12, 15, 16, 17-tetradecahydrocyclopenta[a]phenanthren-17-yl]-2H-furan-5-one], in series [1] (0.20-0.50 μM concentrations), the inhibition is on record as 73%-97%. In addition, the values for the IC50 in series [1] (setting [17]) and in series [1] (setting [16]) were around 0.17 µM and 0.17 ± 0.05 µM, respectively.
`CCCCN(CCCC)CC(O)c1cc(Cl)cc2c1-c1ccc(Cl)cc1/C2=C/c1ccc(Cl)cc1` (stereo not shown) [Lumefantrine]: the “solubility in water (words)” value in series [3] is on record as “insoluble”. Further, in series [4], the “time of Peak Inhibitory Concentration (Threshold)” value is 60 min.
Take `CC(C)CN(C[C@H](OP(=O)(O)O)[C@H](Cc1ccccc1)NC(=O)O[C@H]1CCOC1)S(=O)(=O)c1ccc(N)cc1` [fosamprenavir calcium, Fosamprenavir Calcium]: the inhibition in series [1] (80-200 μM concentrations) was 75%-96%. The IC50 in series [1] (setting [17]) is around 58 µM; in series [1] (setting [8]) it was 58 ± 1 µM; in series [1] (read-out: concentration that reduced the infection by 50%, drug added after the initiation of infection, Vero E6 cells), around 95 µM. Also, the reduced infectivity in series [2] (setting [9]) is listed as 3%; in series [2] (setting [10]), 10%; in series [2] (setting [11]), 28%; in series [2] (setting [12]) it was 55%; in series [2] (setting [13]) it was 73%; in series [2] (setting [14]), 91%. Moreover, the reduced infectivity in series [2] (setting [15]) stood at 100%.
Turning to `COC(=O)N[C@H](C(=O)N[C@@H](Cc1ccccc1)[C@@H](O)CN(Cc1ccc(-c2ccccn2)cc1)NC(=O)[C@@H](NC(=O)OC)C(C)(C)C)C(C)(C)C` [atazanavir sulfate], the inhibition in series [1] (40-100 μM concentrations) is reported as 86%-96%. Besides, the IC50 is around 11 µM in series [1] (setting [17]) and 11.5 ± 1 µM in series [1] (setting [8]). In addition, the reduced infectivity came to 5% in series [2] (setting [9]); 15% in series [2] (setting [10]); 46% in series [2] (setting [11]); 92% in series [2] (setting [12]); 28% in series [2] (setting [18]); 78% in series [2] (setting [19]). Further, the reduced infectivity in series [2] (setting [20]) is 100%.
For `CCC(CC)COC(=O)[C@H](C)N[P@](=O)(OC[C@H]1O[C@@](C#N)(c2ccc3c(N)ncnn23)[C@H](O)[C@@H]1O)Oc1ccccc1` [Remdesivir, 2-ethylbutyl (2S)-2-[[[(2R,3S,4R,5R)-5-(4-aminopyrrolo[2,1-f][1,2,4]triazin-7-yl)-5-cyano-3,4-dihydroxyoxolan-2-yl]methoxy-phenoxyphosphoryl]amino]propanoate], in series [5] (60 minute time frame), the “% Cumulative Drug Release” value is 91.7%. In addition, the “% of Drug Release in a Dissolution Test” value came to 52.6% in series [5] (sample time 30 minute), 73.4% in series [5] (sample time 60 minute), 85.8% in series [5] (sample time 90 minute) and 92.6% in series [5] (sample time 120 minute). Moreover, the “stopped early because of adverse events” value in series [6] (adult patients admitted to hospital for severe COVID-19, 237 enrolled) was 18 patients; in series [6] (share of patients, adult patients with severe COVID-19) it was 12%. Besides, the clinical benefits entry in series [6] (adult patients admitted to hospital for severe COVID-19) is given as “not associated with statistically significant clinical benefits”. Moreover, the solubility in water in series [3] was 0.33 mg/mL (≈ 548 µM). Also, in series [3], the “solubility in water (words)” value is reported as “sparingly soluble”. The inhibition in series [1] (5-50 μM concentrations) was 68%-96%. Further, the IC50 in series [1] (setting [17]) is around 2.4 µM; in series [1] (setting [8]) it was 2.4 ± 1 µM. The reduced infectivity in series [2] (setting [9]) is listed as 7%; in series [2] (setting [10]), 21%; in series [2] (setting [11]), 63%; in series [2] (setting [12]), 96%; in series [2] (setting [18]), 42%; in series [2] (setting [19]), 84%. In series [2] (setting [20]), the reduced infectivity was 100%. Further, in series [7] (1063 patients, p<0.001), the “faster time to recovery than placebo” value is reported as 31%. For the same molecule, in series [7] (1063 patients), the “median time to recovery” value is 11 days. The mortality rate in series [7] (p=0.059 vs placebo) is 8.0%. The “time of Peak Inhibitory Concentration (Threshold)” value in series [4] worked out at 120 min.
